Measured values from patent publication US20190211044A1, “Adjuvant Chemicals that Prevent Drug Tolerance and Persister Formation by Bacteria” (LifeUnit Inc., priority 2018, published 2019).

Legend:
[1] = system: abx-promoted swarming P. aeruginosa; assay: c-di-GMP in abx-promoted swarming P. aeruginosa, by LC-MS (Example 8); type: cell-based
Procedure: 3,5-DiMeDβM and 3,5-DiMeDβC was tested by Liquid Chromatography-Mass Spectrometry (LC-MS) to show the effect on c-di-GMP on abx-promoted swarming P. aeruginosa.

PAO1 in residual biofilm [2] = assay: cdG by reporter strains versus naturally dispersed PAO1 (Example 7); type: cell-based, Pseudomonas aeruginosa; conditions: PAO1 in residual biofilm dispersed by agent
[3] = system: phosphodiesterase activity in biofilms of PA strains; type: cell-based; conditions: bacteria incubated with agent 24-h to form biofilm, lysed, bis-NPP
PAO1 in residual biofilm [4] = assay: cdG in PAO1 in residual biofilm after dispersal, by LC-MS (Example 4); type: cell-based, Pseudomonas aeruginosa; conditions: PAO1 residual biofilm dispersed by agent, versus original native or abx-promoted biofilm
Procedure: PAO1 in residual biofilm dispersed by 3,5-[…] and 3,5-[…] was tested by Liquid Chromatography-Mass Spectrometry (LC-MS).

PAO1 in residual biofilm [5] = assay: cdG in PAO1 in residual biofilm after dispersal, by reporter strains, GFP/CFP fluorescence (Example 5); type: cell-based, Pseudomonas aeruginosa; conditions: 40 μM for native and 85 μM for abx-promoted biofilm, dispersed 5-h at 37° C., M9 medium
PA PAO1 biofilm = assay: Inhibition of PA PAO1 biofilm (FIG. 1); type: cell-based, Pseudomonas aeruginosa; conditions: compounds at 60 μM

Substance	c-di-GMP on abx-promoted swarming P. aeruginosa (LC-MS) [1]	cdG level versus naturally dispersed PAO1 (reporter strains) (PAO1 in residual biofilm [2])	phosphodiesterase activity [3]	cdG level in residual biofilm (LC-MS) (PAO1 in residual biofilm [4])	cdG level in residual biofilm (reporter strains, GFP/CFP) (PAO1 in residual biofilm [5])	biofilm inhibition (PA PAO1 biofilm)
3,5-dimethyl-C12-βC [3,5-DiMeDβC]	increases c-di-GMP	lower cdG than in naturally dispersed PAO1	increase phosphodiesterase activity	lower cdG than in original native or abx-promoted biofilm	lower cdG than in original native or abx-promoted biofilm	
3,5-dimethyl-C12-βM [3,5-DiMeDβM]	increases c-di-GMP	lower cdG than in naturally dispersed PAO1	increase phosphodiesterase activity	lower cdG than in original native or abx-promoted biofilm	lower cdG than in original native or abx-promoted biofilm	> 95%
